Measurements from US20250136553A1, “ACYLSULFONAMIDE KAT6A INHIBITORS” (Olema Pharmaceuticals, Inc., priority 2023, published 2025).

target: human-KAT6A (MYST domain 507-778 aa) (Homo sapiens (Human), UniProt Q92794); test: KAT6A biochemical assay (TR-FRET); conditions: @ 10 μM; reported where IC50 could not be determined; read-out: Percent inhibition at specific concentration (KAT6A)
Description: TR-FRET based methods were used for assaying compounds of the present invention for KAT6A enzyme inhibitory activity. TR-FRET is a homogeneous proximity assay where Europium-labelled anti-acetyl lysine antibody binds to the acetylated substrate labelled with biotin, which in turn binds to streptavidin-labelled APC fluorescence acceptor. Europium can transfer energy to APC in the complex and the interaction of two dye-labelled binding partners is detected by the energy transfer between a donor and an acceptor dye and the subsequent light emission by the acceptor dye. KAT6A transfer an acetyl group from acetyl CoA to lysine amino acids of histones/target proteins. […] The selected compound of the present invention and enzyme are incubated for 30 min on plate shaker at 300 rpm at 25° C. Next, 5 μL of substrate mix containing histone H4 peptide and acetyl-CoA in assay buffer is added to the plate. The final concentrations of H4 peptide and acetyl-CoA are 200 nM and 600 nM, respectively. Following 60 min reaction at 25° C. on plate shaker at 300 rpm, 5 μL of detection mix containing Europium-labelled anti-acetyl antibody and streptavidin-APC is added to the reaction wells. The plate is further incubated at 25° C. on shaker at 300 rpm and is read in TR-FRET mode (Ex:340 nm; Em: 615 nm and 665 nm) on a plate reader to achieve ˜5-7-fold activity. The percent inhibition was calculated from the ratio of the fluorescence (FL) intensities [(F665/F615)×10000) using the formula […]. IC50 values of the compounds were determined by fitting the dose-response data to sigmoidal curve fitting equation using Graph pad prism software V9.

Sequence of human-KAT6A (MYST domain 507-778 aa) (Q92794 507-778): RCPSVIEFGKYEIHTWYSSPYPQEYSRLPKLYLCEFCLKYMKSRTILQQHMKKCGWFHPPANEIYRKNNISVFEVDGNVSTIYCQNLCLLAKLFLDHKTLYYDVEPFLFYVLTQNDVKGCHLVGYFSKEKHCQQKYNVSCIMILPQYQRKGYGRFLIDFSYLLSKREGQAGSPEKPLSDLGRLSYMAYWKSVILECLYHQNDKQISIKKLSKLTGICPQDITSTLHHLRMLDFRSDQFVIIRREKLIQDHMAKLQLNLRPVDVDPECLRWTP

`COc1ccc(Cn2cccn2)cc1C(=O)NS(=O)(=O)c1cc(C(C)(C)C)ccc1OC` [Compound 9, 5-((1H-pyrazol-1-yl)methyl)-N-((5-(tert-butyl)-2-methoxyphenyl)sulfonyl)-2-methoxybenzamide] was tested, and the inhibition at 10 µM was 13%.

same assay, conditions: TR-FRET; histone H4 peptide 200 nM, acetyl-CoA 600 nM; read-out: KAT6A IC50

Point of comparison: `COc1cccc(OC)c1S(=N)(=O)NC(=O)c1ccc(Cn2cccn2)c(OC)n1` (single isomer, unassigned) [Compound 243a], IC50 17 nM. Against it:
- COc1cc(C#Cc2cccnc2)cc(OC)c1S(=O)(=O)NC(=O)c1ccc(Cn2cccn2)c(OC)n1 [Compound 269, 5-((1H-Pyrazol-1-yl)methyl)-N-((2,6-dimethoxy-4-(pyridin-3-ylethynyl)phenyl)sulfonyl)-6-methoxypicolinamide] — within 1.5-fold, 12 nM
- COc1cccc(F)c1[S@](=N)(=O)NC(=O)c1ccc(Cn2cccn2)c(OC)n1 [Compound 305a, (R)-5-((1H-pyrazol-1-yl)methyl)-N-(2-fluoro-6-methoxyphenylsulfonimidoyl)-6-methoxypicolinamide] — within 1.5-fold, 15 nM
- COc1ccc(C(C)(C)C)cc1S(=O)(=O)NC(=O)c1ccc(Cn2cccn2)cc1F [Compound 7, 4-((1H-pyrazol-1-yl)methyl)-N-((5-(tert-butyl)-2-methoxyphenyl)sulfonyl)-2-fluorobenzamide] — 5.8-fold higher, 99 nM
- COc1ccccc1S(=N)(=O)NC(=O)c1ccc(Cn2cccn2)c(OC)n1 (stereo not shown) [Compound 232, 5-((1H-pyrazol-1-yl)methyl)-6-methoxy-N-(2-methoxyphenylsulfonimidoyl)picolinamide] — 5.6-fold higher, 95 nM
- COc1ccc(C(F)(F)F)cc1S(=O)(=O)NC(=O)c1ccc(Cn2cccn2)c(OC)n1 [Compound 207, 5-((1H-pyrazol-1-yl)methyl)-6-methoxy-N-((2-methoxy-5-(trifluoromethyl)phenyl)sulfonyl)picolinamide] — 1.7-fold lower, 10 nM
- CCOc1cccc(OC)c1S(=N)(=O)NC(=O)c1ccc(Cn2cccn2)c(OC)n1 (racemic) [Compound 294, 5-((1H-pyrazol-1-yl)methyl)-N-(2-ethoxy-6-methoxyphenylsulfonimidoyl)-6-methoxypicolinamide] — 2.1-fold higher, 35 nM
- COc1ccc2c(c1S(=O)(=O)NC(=O)c1ccc(Cn3cccn3)c(OC)n1)CCC2 [Compound 216, 5-((1H-pyrazol-1-yl)methyl)-6-methoxy-N-((5-methoxy-2,3-dihydro-1H-inden-4-yl)sulfonyl)picolinamide] — within 1.5-fold, 12 nM
- COc1cc(C(=O)NS(=O)(=O)c2c(OC)ccc(C3CC3)c2OC)ccc1Cn1cccn1 [Compound 61, 4-((1H-pyrazol-1-yl)methyl)-N-((3-cyclopropyl-2,6-dimethoxyphenyl)sulfonyl)-3-methoxybenzamide] — 2.8-fold lower, 6 nM
- COc1cc(C(=O)NS(=O)(=O)c2ccccc2-c2ccccc2)ccc1Cn1cccn1 [Compound 22, 4-((1H-pyrazol-1-yl)methyl)-N-([1,1′-biphenyl]-2-ylsulfonyl)-3-methoxybenzamide] — 2.9-fold higher, 49 nM
- COc1ccc(C2CC2)cc1S(=O)(=O)NC(=O)c1ccc(Cn2cccn2)c(OC)n1 [Compound 206, 5-((1H-pyrazol-1-yl)methyl)-N-((5-cyclopropyl-2-methoxyphenyl)sulfonyl)-6-methoxypicolinamide] — 2.1-fold lower, 8 nM
- COc1cc(Cn2cccn2)ccc1C(=O)NS(=O)(=O)c1ccc(-n2cccn2)cc1OC [Compound 10, 4-((1H-pyrazol-1-yl)methyl)-2-methoxy-N-((2-methoxy-4-(1H-pyrazol-1-yl)phenyl)sulfonyl)benzamide] — 87-fold higher, 1480 nM
- COc1nc(C(=O)N[S@](=N)(=O)c2cccc3c2OCC3)ccc1Cn1cccn1 [Compound 303b, (S)-5-((1H-pyrazol-1-yl)methyl)-N-(2,3-dihydrobenzofuran-7-sulfonimidoyl)-6-methoxypicolinamide] — 6.4-fold higher, 108 nM
- CCc1ccc(OC)c(S(=O)(=O)NC(=O)c2ncc(Cn3cccn3)c(OC)n2)c1 [Compound 271, 5-((1H-Pyrazol-1-yl)methyl)-N-((5-ethyl-2-methoxyphenyl)sulfonyl)-4-methoxypyrimidine-2-carboxamide] — 2.2-fold higher, 37 nM
- COc1cc(C(=O)NS(=O)(=O)c2cc(O)ccc2OC)ccc1Cn1cccn1 [Compound 39, 4-((1H-pyrazol-1-yl)methyl)-N-((5-hydroxy-2-methoxyphenyl)sulfonyl)-3-methoxybenzamide] — within 1.5-fold, 24 nM
- COc1cc(OC)c(S(=O)(=O)NC(=O)c2ncc(Cn3cccn3)c(OC)n2)c(OC)c1 [Compound 272, 5-((1H-pyrazol-1-yl)methyl)-4-methoxy-N-((2,4,6-trimethoxyphenyl)sulfonyl)pyrimidine-2-carboxamide] — 1.9-fold higher, 33 nM
- COc1cc(C(=O)NS(=O)(=O)c2c(OC)cccc2OC)ccc1Oc1nccs1 [Compound 59, N-((2,6-dimethoxyphenyl)sulfonyl)-3-methoxy-4-(thiazol-2-yloxy)benzamide] — 1.9-fold higher, 33 nM
- COc1cc(Br)cc(OC)c1S(=O)(=O)NC(=O)c1ccc(Cn2cccn2)c(OC)n1 [Compound 285, 5-((1H-pyrazol-1-yl)methyl)-N-((4-bromo-2,6-dimethoxyphenyl)sulfonyl)-6-methoxypicolinamide] — 2.8-fold lower, 6 nM
- COc1cc(C)cc(OC)c1S(=O)(=O)NC(=O)c1ccc(Cn2cccn2)c(OC)n1 [Compound 275, 5-((1H-pyrazol-1-yl)methyl)-N-((2,6-dimethoxy-4-methylphenyl)sulfonyl)-6-methoxypicolinamide] — 1.7-fold lower, 10 nM
- 5-((1H-pyrazol-1-yl)methyl)-N-((5-(tert-butyl)-2-methoxyphenyl)sulfonyl)-4-methoxypyrimidine-2-carboxamide [Compound 264] — within 1.5-fold, 12 nM
- CCc1ccc(OC)c(S(=O)(=O)NC(=O)c2ccc(Cn3cccn3)cc2OC)c1 [Compound 3, 4-((1H-pyrazol-1-yl)methyl)-N-((5-ethyl-2-methoxyphenyl)sulfonyl)-2-methoxybenzamide] — 8.1-fold higher, 137 nM
- COc1cc(C(=O)NS(=O)(=O)c2cccc(O)c2)ccc1Cn1cccn1 [Compound 23, 4-((1H-pyrazol-1-yl)methyl)-N-((3-hydroxyphenyl)sulfonyl)-3-methoxybenzamide] — 1.9-fold higher, 32 nM
- COc1cc(C(=O)NS(=O)(=O)c2cc(-n3cccn3)ccc2OC)ccc1Cn1cccn1 [Compound 19, 4-((1H-pyrazol-1-yl)methyl)-3-methoxy-N-((2-methoxy-5-(1H-pyrazol-1-yl)phenyl)sulfonyl)benzamide] — 2.5-fold higher, 42 nM
- COc1cccc(OC)c1S(=O)(=O)NC(=O)c1ccc(Cn2cccn2)c(OC(F)(F)F)c1 [Compound 33, 4-((1H-pyrazol-1-yl)methyl)-N-((2,6-dimethoxyphenyl)sulfonyl)-3-(trifluoromethoxy)benzamide] — 1.7-fold lower, 10 nM
- COc1cc(OC)c(S(=O)(=O)NC(=O)c2ccc(Cn3cccn3)c(OC)n2)cc1Br [Compound 242, 5-((1H-pyrazol-1-yl)methyl)-N-((5-bromo-2,4-dimethoxyphenyl)sulfonyl)-6-methoxypicolinamide] — 1.7-fold lower, 10 nM
- COc1cc(OC)c(S(=O)(=O)NC(=O)c2ccc(Cn3cccn3)c(OC)c2)c(OC)c1 [Compound 47, 4-((1H-pyrazol-1-yl)methyl)-3-methoxy-N-((2,4,6-trimethoxyphenyl)sulfonyl)benzamide] — 1.9-fold lower, 9 nM
- COc1cc(C(=O)NS(=O)(=O)c2c(OC)cccc2OCC(F)(F)F)ccc1Cn1cccn1 [Compound 68, 4-((1H-pyrazol-1-yl)methyl)-3-methoxy-N-((2-methoxy-6-(2,2,2-trifluoroethoxy)phenyl)sulfonyl)benzamide] — within 1.5-fold, 23 nM
- COc1cc(C(=O)NS(=O)(=O)c2ccccc2OC)ccc1Cn1cccn1 [Compound 26, N-(2-methoxyphenyl)sulfonyl-3-methoxy-4-(pyrazol-1-ylmethyl)benzamide] — within 1.5-fold, 25 nM
- COc1cccc(OC)c1S(=O)(=O)NC(=O)c1ccc(Cn2cccn2)c(Br)c1F [Compound 49, 4-((1H-pyrazol-1-yl)methyl)-3-bromo-N-((2,6-dimethoxyphenyl)sulfonyl)-2-fluorobenzamide] — 2.1-fold lower, 8 nM
- COc1nc(C(=O)N[S@@](=N)(=O)c2ccccc2F)ccc1Cn1cccn1 [Compound 307a, (R)-5-((1H-pyrazol-1-yl)methyl)-N-(2-fluorophenylsulfonimidoyl)-6-methoxypicolinamide] — 6.4-fold higher, 108 nM
- COc1cccc(OC)c1S(=O)(=O)NC(=O)c1ccc(Cn2cccn2)c(OC(F)F)c1 [Compound 37, 4-((1H-pyrazol-1-yl)methyl)-3-(difluoromethoxy)-N-((2,6-dimethoxyphenyl)sulfonyl)benzamide] — 1.7-fold lower, 10 nM
- CCOc1ccc(CC)c(OC)c1S(=O)(=O)NC(=O)c1ccc(Cn2cccn2)c(OC)n1 [Compound 284, 5-((1H-pyrazol-1-yl)methyl)-N-((6-ethoxy-3-ethyl-2-methoxyphenyl)sulfonyl)-6-methoxypicolinamide] — 1.7-fold lower, 10 nM
- COc1cc(C(=O)N[S@](=N)(=O)c2c(OC)cccc2OC)ccc1Cn1cccn1 [Compound 295b, (S)-4-((1H-pyrazol-1-yl)methyl)-N-(2,6-dimethoxyphenylsulfonimidoyl)-3-methoxybenzamide] — 16-fold higher, 271 nM
